Columns and labels:
[1] = target: T1, NEP enzyme (Homo sapiens, UniProt P08473); test: NEP enzyme inhibition assay (fluorogenic peptide substrate); type: biochemical; settings: values given as lower bounds; * = prodrugs, may not exhibit NEP activity in an in vitro assay; read-out: NEP pIC50 (converted)
T1 construct: purchased R&D Systems, Minneapolis, Minn; 1182-ZN
Procedure: B. In Vitro Assays for the Quantitation of Inhibitor Potencies (IC50) at Human and Rat NEP, and Human ACE
The inhibitory activities of compounds at human and rat NEP and human ACE were determined using in vitro assays as described below.
Recombinant human NEP and recombinant human ACE were obtained commercially (R&D Systems, Minneapolis, Minn., catalog numbers 1182-ZN and 929-ZN, respectively). The fluorogenic peptide substrate Mca-BK2 (Mca-Arg-Pro-Pro-Gly-Phe-Ser-Ala-Phe-Lys(Dnp)-OH; Johnson et al. (2000) Anal. Biochem. 286: 112-118) was used for the human NEP and ACE assays, and Mca-RRL (Mca-DArg-Arg-Leu-(Dnp)-OH; Medeiros et al. (1997) Braz. J. Med. Biol. Res. 30:1157-1162) was used for the rat NEP assay (both from Anaspec, San Jose, Calif.).
The assays were performed in 384-well white opaque plates at room temperature using the respective fluorogenic peptides at a concentration of 10 μM in assay buffer (50 mM Tris/HCl at 25° C., 100 mM NaCl, 0.01% Tween-20, 1 μM Zn, 0.025% BSA). […] The rat NEP enzyme preparation was used at a concentration that yielded quantitative proteolysis of 3 μM of Mca-RRL within 20 minutes at room temperature.
Test compounds were diluted to 12 concentrations from 10 μM to 20 pM in Assay Buffer. Assays were started by adding 25 μL of enzyme to 12.5 μL of test compound at each of the 12 concentrations. Test compounds were allowed to equilibrate with the enzyme for 10 minutes before 12.5 μL of the fluorogenic substrates were added to initiate the reaction. Reactions were terminated by the addition of 10 μL of 3.6% glacial acetic acid after 20 minutes of incubation.
For sulfhydryl-containing test compounds, the test compounds may be diluted in Assay Buffer containing a 400 μM concentration of tris(2-carboxyethyl)phosphine hydrochloride (Thermo Scientific, Rockford, Ill.) (TCEP). The test compounds are then incubated for 40 minutes at room temperature (to allow for dimer cleavage) before adding the enzyme. Test compounds are then allowed to equilibrate with the enzyme for 20 minutes before adding the fluorogenic substrates. Reactions are terminated as above.
Plates were read on a fluorometer with excitation and emission wavelengths set to 320 nm and 405 nm, respectively. Raw data (relative fluorescence units) were normalized to % activity from the average high readings (no inhibition, 100% enzyme activity) and average low readings (full inhibition, highest inhibitor concentration, 0% enzyme activity) using three standard NEP and ACE inhibitors, respectively. Nonlinear regression of the normalized data was performed using a one site competition model (GraphPad Software, Inc., San Diego, Calif.). Data were reported as pIC50 values.

[2] = target: T2, human AT1 receptor (Homo sapiens, UniProt P30556); test: AT1 radioligand binding assay (displacement of [Eu]AngII); settings: membranes of CHO-K1 cells expressing cloned human AT1 receptor; values given as lower bounds; read-out: AT1 pKi (converted)
T2 construct: expressed in transfected cells; host or cells: CHO-K1
T2 sequence (P30556 1-359): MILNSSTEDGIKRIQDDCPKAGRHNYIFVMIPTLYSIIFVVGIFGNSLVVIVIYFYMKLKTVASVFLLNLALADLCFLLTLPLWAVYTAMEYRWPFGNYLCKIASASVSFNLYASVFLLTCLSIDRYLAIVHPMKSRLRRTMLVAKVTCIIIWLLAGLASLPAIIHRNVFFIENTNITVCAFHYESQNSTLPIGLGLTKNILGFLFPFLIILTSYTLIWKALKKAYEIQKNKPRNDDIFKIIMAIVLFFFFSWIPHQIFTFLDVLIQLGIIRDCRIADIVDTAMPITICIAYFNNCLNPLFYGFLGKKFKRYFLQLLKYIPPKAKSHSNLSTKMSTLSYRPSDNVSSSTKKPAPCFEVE
Procedure: A. AT1 and AT2 Radioligand Binding Assays
These in vitro assays were used to assess the ability of test compounds to bind to the AT1 and the AT2 receptors.
Membrane Preparation from Cells Expressing Human AT1 or AT2 Receptors
Chinese hamster ovary (CHO-K1) derived cell lines stably expressing the cloned human AT1 or AT2 receptors, respectively, were grown in HAM's-F12 medium supplemented with 10% fetal bovine serum, 10 μg/ml penicillin/streptomycin, and 500 μg/ml geneticin in a 5% CO2 humidified incubator at 37° C. AT2 receptor expressing cells were grown in the additional presence of 100 nM PD123,319 (AT2 antagonist). When cultures reached 80-95% confluence, the cells were washed thoroughly in PBS and lifted with 5 mM EDTA. Cells were pelleted by centrifugation and snap frozen in MeOH-dry ice and stored at −80° C. until further use.
For membrane preparation, cell pellets were resuspended in lysis buffer (25 mM Tris/HCl pH 7.5 at 4° C., 1 mM EDTA, and one tablet of Complete Protease Inhibitor Cocktail Tablets with 2 mM EDTA per 50 mL buffer (Roche cat.#1697498, Roche Molecular Biochemicals, Indianapolis, Ind.)) and homogenized using a tight-fitting Dounce glass homogenizer (10 strokes) on ice. The homogenate was centrifuged at 1000×g, the supernatant was collected and centrifuged at 20,000×g. The final pellet was resuspended in membrane buffer (75 mM Tris/HCl pH 7.5, 12.5 mM MgCl2, 0.3 mM EDTA, 1 mM EGTA, 250 mM sucrose at 4° C.) and homogenized by extrusion through a 20G gauge needle. Protein concentration of the membrane suspension was determined by the method described in Bradford (1976) Anal Biochem. 72:248-54. Membranes were snap frozen in MeOH-dry ice and stored at −80° C. until further use.
Ligand Binding Assay to Determine Compound Affinities for the Human AT1 and AT2 Angiotensin Receptors
Binding assays were performed in 96-well Acrowell filter plates (Pall Inc., cat.#5020) in a total assay volume of 100 μL with 0.2 μg membrane protein for membranes containing the human AT1 receptor, or 2 μg membrane protein for membranes containing the human AT2 receptor in assay buffer (50 mM Tris/HCl pH 7.5 at 20° C., 5 mM MgCl2, 25 μM EDTA, 0.025% BSA). Saturation binding studies for determination of Kd values of the ligand were done using N-terminally Europium-labeled angiotensin-II ([Eu]AngII, H-(Eu-N^1)-Ahx-Asp-Arg-Val-Tyr-Ile-His-Pro-Phe-OH; PerkinElmer, Boston, Mass.) at 8 different concentrations ranging from 0.1 nM to 30 nM. […] Drugs were dissolved to a concentration of 1 mM in DMSO and from there serially diluted into assay buffer. Non-specific binding was determined in the presence of 10 μM unlabeled angiotensin-II. Assays were incubated for 120 minutes in the dark, at room temperature or 37° C., and binding reactions were terminated by rapid filtration through the Acrowell filter plates followed by three washes with 200 μL ice cold wash buffer (50 mM Tris/HCl pH 7.5 at 4° C., 5 mM MgCl2) using a Waters filtration manifold. Plates were tapped dry and incubated with 50 μl DELFIA Enhancement Solution (PerkinElmer cat.#4001-0010) at room temperature for 5 minutes on a shaker. Filter-bound [Eu]AngII was quantitated immediately on a Fusion plate reader (PerkinElmer) using Time Resolved Fluorescence (TRF). Binding data were analyzed by nonlinear regression analysis with the GraphPad Prism Software package (GraphPad Software, Inc., San Diego, Calif.) using the 3-parameter model for one-site competition. The BOTTOM (curve minimum) was fixed to the value for nonspecific binding, as determined in the presence of 10 μM angiotensin II. Ki values for drugs were calculated from observed IC50 values and the Kd value of [Eu]AngII according to the Cheng-Prusoff equation described in Cheng et al. (1973) Biochem Pharmacol. 22 (23):3099-108. Selectivities of test compounds for the AT1 receptor over the AT2 receptor were calculated as the ratio of AT2Ki/AT1Ki. […]

T1 sequence (P08473 52-750 limits assumed): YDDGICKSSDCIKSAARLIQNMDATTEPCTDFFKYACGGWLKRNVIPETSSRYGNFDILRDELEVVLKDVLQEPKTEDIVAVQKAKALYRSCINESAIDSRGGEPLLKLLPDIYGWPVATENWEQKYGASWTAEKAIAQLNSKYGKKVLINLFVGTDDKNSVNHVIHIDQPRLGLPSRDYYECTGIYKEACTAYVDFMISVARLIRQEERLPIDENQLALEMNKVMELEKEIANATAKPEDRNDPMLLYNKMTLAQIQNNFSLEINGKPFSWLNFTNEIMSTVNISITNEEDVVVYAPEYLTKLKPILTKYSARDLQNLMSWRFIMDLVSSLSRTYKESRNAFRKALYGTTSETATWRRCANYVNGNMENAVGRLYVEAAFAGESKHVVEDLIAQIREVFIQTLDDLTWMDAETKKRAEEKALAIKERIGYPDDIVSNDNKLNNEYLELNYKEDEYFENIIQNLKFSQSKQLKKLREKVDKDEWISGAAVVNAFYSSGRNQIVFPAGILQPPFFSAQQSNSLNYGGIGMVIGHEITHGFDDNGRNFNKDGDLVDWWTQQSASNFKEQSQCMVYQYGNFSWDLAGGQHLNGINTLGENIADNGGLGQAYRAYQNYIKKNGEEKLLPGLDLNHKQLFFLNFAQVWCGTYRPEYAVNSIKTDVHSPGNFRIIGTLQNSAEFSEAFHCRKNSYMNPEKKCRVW

| IC50 [1] | Ki [2] | SMILES |
| --- | --- | --- |
| ≤ 1000 nM | ≤ 10 nM | CCCc1cc(C(=O)N[C@H](Cc2ccccc2)[C@@H](O)C(=O)O)nn1Cc1ccc(-c2ccccc2S(=O)(=O)NC(=O)c2ccccc2)cc1 [Example 7-12, (2R,3R)-3-{[1-(2′-Benzoylsulfamoylbiphenyl-4-ylmethyl)-5-propyl-1H-pyrazole-3-carbonyl]amino}-2-hydroxy-4-phenylbutyric acid] |
| ≤ 1000 nM | ≤ 10 nM | CCCc1cc(C(=O)N[C@@H](CC(=O)O)Cc2ccccc2Br)nn1Cc1ccc(-c2ccccc2-c2nnn[nH]2)cc1 [Example 3-13, (R)-4-(2-Bromophenyl)-3-({5-propyl-1-[2′-(1H-tetrazol-5-yl)-biphenyl-4-ylmethyl]-1H-pyrazole-3-carbonyl}amino)butyric acid] |
| ≤ 100 nM | ≤ 100 nM | CCCc1cc(C(=O)N[C@@H](CS)Cc2ccccc2)nn1Cc1ccc(-c2ccccc2S(=O)(=O)NC(C)=O)nc1 [Example 14-3, 1-[6-(2-Acetylsulfamoyl-phenyl)pyridin-3-ylmethyl]-5-propyl-1H-pyrazole-3-carboxylic acid ((R)-1-benzyl-2-mercaptoethyl)amide] |
| ≤ 100 nM | ≤ 100 nM | CCCc1cc(C(=O)N[C@H](Cc2ccccc2Cl)[C@@H](O)C(=O)O)nn1Cc1ccc(-c2ccccc2-c2nnn[nH]2)cc1 [Example 3-22, (2R,3R)-3-(1-((2′-(1H-tetrazol-5-yl)biphenyl-4-yl)methyl)-5-propyl-1H-pyrazole-3-carboxamido)-4-(2-chlorophenyl)-2-hydroxybutanoic acid] |
| ≤ 100 nM | ≤ 10 nM | CCCc1cc(C(=O)N[C@@H](CC(=O)O)Cc2ccccc2Cl)nn1Cc1ccc(-c2ccccc2-c2nnn[nH]2)nc1 [Example 10, (R)-4-(2-Chlorophenyl)-3-[(5-propyl-1-{6-[2-(1H-tetrazol-5-yl)phenyl]pyridin-3-ylmethyl}-1H-pyrazole-3-carbonyl)amino]butyric Acid] |
| ≤ 1000 nM | ≤ 100 nM | CCCc1cc(C(=O)N[C@H](Cc2ccccc2)[C@@H](O)C(=O)O)nn1Cc1ccc(-c2ccccc2S(=O)(=O)NC(=O)C(C)(C)N)cc1 [Example 7-19, (2R,3R)-3-({1-[2′-(2-Amino-2-methylpropionylsulfamoyl)biphenyl-4-ylmethyl]-5-propyl-1H-pyrazole-3-carbonyl}amino)-2-hydroxy-4-phenylbutyric acid] |
| ≤ 1000 nM | ≤ 100 nM | CCOc1cc(C(=O)N[C@H](Cc2ccccc2)[C@@H](O)C(=O)O)nn1Cc1ccc(-c2ccccc2S(=O)(=O)NC(C)=O)cc1 [Example 6-3, (2R,3R)-3-{[1-(2′-Acetylsulfamoylbiphenyl-4-ylmethyl)-5-ethoxy-1H-pyrazole-3-carbonyl]amino}-2-hydroxy-4-phenyl-butyric acid] |
| ≤ 100 nM | ≤ 10 nM | CCOc1cc(C(=O)N[C@H](Cc2ccccc2)[C@@H](O)C(=O)O)nn1Cc1ccc(-c2ccccc2S(=O)(=O)NC(C)=O)cc1F [Example 6-4, (2R,3R)-3-{[1-(2′-Acetylsulfamoyl-3-fluorobiphenyl-4-ylmethyl)-5-ethoxy-1H-pyrazole-3-carbonyl]amino}-2-hydroxy-4-phenylbutyric acid] |
| ≤ 100 nM | ≤ 100 nM | CCCc1cc(C(=O)N[C@H](Cc2ccccc2)[C@@H](O)C(=O)O)nn1Cc1ccc(-c2ccccc2S(=O)(=O)NC(C)=O)nc1 [Example 13, (2R,3R)-3-({1-[6-(2-Acetylsulfamoylphenyl)pyridin-3-ylmethyl]-5-propyl-1H-pyrazole-3-carbonyl}amino)-2-hydroxy-4-phenylbutyric Acid] |
| ≤ 100 nM | ≤ 10 nM | CCCc1cc(C(=O)N[C@H](Cc2ccccc2)[C@@H](O)C(=O)O)nn1Cc1cnc(-c2ccccc2-c2nnn[nH]2)cn1 [Example 17-3, (2R,3R)-3-(1-((5-(2-(1H-tetrazol-5-yl)phenyl)pyrazin-2-yl)methyl)-5-propyl-1H-pyrazole-3-carboxamido)-2-hydroxy-4-phenylbutanoic acid] |
| ≤ 100 nM | ≤ 10 nM | CCCc1cc(C(=O)N[C@@H](CC(=O)NO)Cc2ccccc2)nn1Cc1ccc(-c2ccccc2S(=O)(=O)NC(C)=O)cc1F [Example 6-16, 1-(2′-Acetylsulfamoyl-3-fluorobiphenyl-4-ylmethyl)-5-propyl-1H-pyrazole-3-carboxylic acid ((R)-1-hydroxycarbamoylmethyl-2-phenylethyl)amide] |
| ≤ 100 nM | ≤ 10 nM | CCOc1cc(C(=O)N[C@H](Cc2ccccc2)[C@@H](O)C(=O)O)nn1Cc1ccc(-c2ccccc2-n2nn[nH]c2=O)cc1 [Example 16-7, (2R,3R)-3-({5-Ethoxy-1-[2′-(5-oxo-4,5-dihydrotetrazol-1-yl)-biphenyl-4-ylmethyl]-1H-pyrazole-3-carbonyl}amino)-2-hydroxy-4-phenylbutyric acid] |
